Laboratory results as given in patent publication US20100204142A1, “USE OF THE PEPTIDE PHPFHLFVY (RENIN INHIBITOR) AS A THERAPEUTIC AGENT” (priority 2007, published 2010).
Where no end group is shown, it is not given here.

Tested on: drug-resistant Mycobacterium tuberculosis
Conditions: drug-resistant Mycobacterium tuberculosis growth; peptide 10 micrograms per ml; seven days

In the case of PHPFHLFVY-OH [Renin inhibitor], the “% inhibition” value is reported as 0.0%.
